Experimental data as given in ChEMBL document CHEMBL1157093, “Lactonecembranoids from Croton laevigatus” (J Nat Prod, 2010).

system: HeLa; test: Antiproliferative activity against human HeLa cells by MTT assay; type: functional, cell-based; conditions: Homo sapiens, HeLa; read-out: IC50

IC50 | SMILES
38.4 µM | C/C1=C\CC[C@](C)(O)/C=C/[C@]2(C(C)C)CC/C(=C/CC1)C(=O)O2 (relative stereo) [LAEVIGATLACTON B]

same assay, conditions: hela

IC50 | SMILES
Not Active | C/C1=C\CC[C@@](C)(O)/C=C/[C@]2(C(C)C)CC/C(=C\CC1)C(=O)O2 (relative stereo) [LAEVIGATLACTONE A]
Not Active | C/C1=C\CC[C@](C)(O)/C=C/[C@]2(C(C)C)CC/C(=C\CC1)C(=O)O2 (relative stereo) [LAEVIGATLACTONE C]
Not Active | C/C1=C\CC/C(C)=C/[C@@H](O)[C@]2(C(C)C)CC/C(=C\CC1)C(=O)O2 (relative stereo) [LAEVIGATLACTONE D]
Not Active | CC(C)[C@@]12/C=C/[C@@](C)(O)C/C=C/[C@](C)(O)CC/C=C(\CC1)C(=O)O2 (relative stereo) [LAEVIGATLACTONE E]
Not Active | C/C1=C\C=C(\C(C)C)CC/C(C(=O)O)=C\CC/C(C)=C/CC1 [NEOCROTOCEMBRANEIC ACID]

SMILES | IC50
CC(C)[C@@]12/C=C/[C@@](C)(O)C/C=C/[C@](C)(OO)CC/C=C(\CC1)C(=O)O2 (relative stereo) [LAEVIGATLACTONE F] | Not Active
